Bridges are numbered along the chain shown (N, C = ends). [ ]: non-standard residue; d: D form. Abu = CC[C@H](N)C(=O)O
Columns and labels:
Assay type in all cases: cell-based
[1] = test system: Ser40 phosphorylation of Th in HEK cells transfected with Th; experiment: Th Ser40 phosphorylation in HEK cells transfected with Th (western blot); settings: HEK transfected with Th, 500 μM, 48 hours post-plating
Procedure: FIG. 3. HEK cells are a suitable model to study GUCY2C-induced Ser40 phosphorylation. (A) RT-qPCR data from intact HEK extracts. Input material was 10 ng of total RNA. Cp corresponds to the cycle number in which the expression starts to be considered positive. (−) represents the water control, which is negative in every case. (B) HEK cultures were transfected with Th and treated with a cGMP analogue 48 hours post-plating. Changes in Ser40 phosphorylation were studied. The graph represents the statistical analysis (n=6; Mean±SEM). Unpaired Student's t-test (p-value: ****<0.0001). Hereon, ‘Fold Change’ corresponds to the ratio P-Ser40/Total Th.
(§1) FIG. 7. PDE2a is an important effector regulating Ser40 phosphorylation in MN9D cells. BAY-60-7550 dose-curve and representative examples in MN9D (n=9, red) and HEK cells (n=4, blue) (Mean±SEM). Cells were treated with various concentrations of BAY 60-7750 and analyzed for Th phosphorylation on Ser40 , total Th and actin.
HEK cells were maintained in 100-mm Petri dishes and grown in DMEM medium supplemented with L-glutamine, penicillin-streptomycin (Pen&Strep) and 10% heat-inactivated fetal bovine serum (HIFBS). Growing conditions were 37° C. and 5% CO2. For every-other-day passages, HEK cultures were split at a 1:3 dilution. From Friday to Monday, the split proportion was doubled for all cell lines. For passaging, cultures were rinsed with PBS and incubated with 1 mL of trypsin during 5 minutes. Cells were resuspended in growth medium and finally split to the proper dilution. The experiments were performed in 12-well plates. For immunocytochemistry analysis, sterile 18-mm coverslips were added prior to the plating. 500 !μL of cell resuspension was seeded in each well. If experiments were to be performed 48 hours after the plate preparation, 1:5 was the seeding ratio for HEK cells. When the experiments took place 96 hours post-plating, 1:7 was the working dilution for HEK cells. Unless otherwise stated, HEK cultures were processed 96 hours post-plating.
HEK cells were transfected using the calcium-phosphate method. […]

[2] = test system: Th Ser40 phosphorylation in mouse striatum slices; experiment: Th Ser40 phosphorylation in mouse striatal slices ex vivo (WES automated western); settings: for Fold change (average), P-S40 TH/TTH / effects in striatal slices (significance, in words): 1 h; for Fold change (average), P-S40 TH/TTH: WES; for effects in striatal slices (significance, in words): peptides 10 μM, mouse striatal slices
Source text: FIG. 13. Bay 60-7550 and Guanylin synergize to induce Ser40 phosphorylation Analysis of striatal slices treated with indicated compounds. WES data showing the phosphorylation of Th on Serine 40 is shown as well as total Th levels (a). From left to right are sequential striatal slices from rostral to caudal. Every slice is split into left and right hemisphere and either treated with compounds or vehicle. Left a positive and negative control is shown (Neuro2a cells transfected with Th or empty vector). The amount of Th Ser40 is corrected for the amount of total Th and shown in the bar graph (b). Each individual slice is indicated by a different symbol. Signficance is determined using a 2-tailed paired t-test. 2-tailed paired t-test: p=0.006.
Adult mice with an average of 5 weeks were sacrificed and the brain was quickly removed and sliced into coronal sections of 250 μm using a vibratome. Sections containing striatum were micro-dissected to remove non-striatal structures. Hemispheres were separated and one hemisphere was treated with compounds whereas the counter-hemisphere was treated with vehicle. Treatment of slices occurred in carbonized artificial cerebrospinal fluid (aCSF). After treatments, slices were lyzed in SDS containing sample buffer, sonicated, and heated at 95° C. Samples were analyzed on a WES automated western system (Protein Simple) according to manufacturer's instructions.
To investigate the effect of PDE2 inhibition in the mouse brain, an ex-vivo approach using brain slices was utilized. Coronal slices of mouse striatum were prepared and treated with BAY-60 7550 diluted in aCSF and subsequently analyzed by a WES automated western system. […] PDE2 is thus expressed in dopaminergic neurons and PDE2 protein and Th protein are present in the synaptic terminals of the neurons which project from the midbrain dopamine system to the striatum. To investigate the effects of GUCY2C ligands on Th activation, coronal slices of the mouse striatum were prepared, treated with guanylin and analyzed for Th Ser40 phosphorylation as was done for BAY-60-7550. […] The machinery for producing dopamine is thus present in the synaptic terminals where dopamine is released. […] Since both BAY 60-7550 and guanylin increased Th phosphorylation at 10μM, but not at 1 μM, we examined the effect of combining BAY 60-7750 and guanylin at 1μM.

GUCY2C = GUCY2C (Homo sapiens, UniProt P25092); experiment: GUCY2C ligand analysis in HEK-293 cells transfected with GUCY2C and Th (WES); parameters: expressed in transfected cells; host or cells: HEK-293 cells transfected with GUCY2C and Th; settings: 10 μM, Th Ser40 corrected for total Th, n=3
Procedure: Potential GUCY2C ligands were tested in HEK-293 cells transfected with GUCY2C and Th and subsequently treated and analyzed by automated western (WES). Th Ser40 was corrected for total Th. Controls were set to 1. Significance is determined by two-tailed t-test on n=3. * p<0.05, **p<0.01, ***p<0.005, “”p<0.001. A) Guanylin control 10 μM. B) Peptides 1 to 5 in an amount of 10 μM. C) Peptides 6 to 11 in an amount of 10 μM.
We designed novel peptides with different activities with respect to endogenous GUCY2C ligands (Table 3). The peptides were analyzed in Th and GUCY2C transfected HEK-293 cells and subsequently tested ex-vivo in mice striatal slices. […] We synthezised uroguanylin and heat stable toxin as controls for the synthezised peptides and they thus are from a different source than the commercially available uroguanylin and heat stable toxin. […] Possibly the effects of the peptides can differ depending on the area in the striatum which is stimulated.

[3] = test system: Ser40 phosphorylation of Th in MN9D cells; experiment: Th Ser40 phosphorylation in MN9D cells (western blot, P-Ser40/total Th)
Procedure: FIG. 6. PDE2a is an important effector regulating Ser40 phosphorylation in MN9D cells. MN9D cultures were treated with IBMX or BAY-60-7550 (50 μM), a PDE2A-selective inhibitor. Cells were analyzed on western-blot for phosphorylation of Ser40 , total Th, and actin.
as §1
FIG. 10. PDE11 is an important effector regulating Ser40 phosphorylation in MN9D cells. BC 11-38 dose-curve and representative examples in MN9D (n=2) (Mean±SEM). IBMX served as a control and was used at 100 μM. Cell were analyzed for phosphorylation of Th on Ser40 and total Th was used as a loading control to determine phosphorylation specific effects.
24 hours prior to the administration of the different compounds, cells were serum-starved with DMEM medium supplemented with L-glutamine and Pen&Strep. Unless otherwise stated, the concentration of the different reagents is reported in Table 1 and the duration of the treatment was 1 hour.
Cells were harvested in 150 μL of Laemmli sample buffer (2% SDS, 10% glycerol, 60 mM Tris-Cl pH 6.8, 0.01% bromophenol blue, 50 mM freshly added DTT). Wells were duplicated in pairs and pooled into the same tubes to minimize variability. Samples were sonicated at maximum potency during 3 minutes, heated at 95° C. for 5 minutes and spun down briefly before loading. Running gels were 10% polyacrylamide except for the GUCY2C detection, which was optimal in 7% gels (375 mM Tris-Cl pH 8.8, 0.1% APS, 0.1% SDS, 0.04% TEMED). Stacking gels were 5% polyacrylamide (125 mM Tris-Cl pH 6.8, 0.1% APS, 0.1% SDS, 0.04% TEMED).
Up to 35 μL of sample was loaded in each slot and run in the presence of tris-glycine buffer and 0.1% SDS. Running conditions were 100 V during the first 20 minutes, followed by 160 V until the migration front reached the bottom of the gel. The transference was performed at 100 V onto 0.2 μm nitrocellulose membranes, in the presence of tris-glycine buffer and 20% methanol. The blotting duration was 140 minutes except for the detection of GUCY2C, which was transferred during 240 minutes in the presence of 0.1% SDS. Membranes were then submerged in Ponceau S solution to check blotting efficiency (0.1% Ponceau S, 5% acetic acid). After several washings with DEMI water, blots were incubated during 1 hour in the presence of 5% milk powder and TBS-T (154 mM NaCl, 49.5 mM Tris-Cl pH 7.4, 0.1% Tween-20). The incubation with the primary antibodies was performed O/N at 4° C. in TBS-T (consult Table 2 for dilution and species). Membranes were rinsed in TBS-T during 1 hour to remove the excess antibody. The incubation with the secondary antibodies took place during 60 minutes at room temperature (1:10,000 dilution in TBS-T, with the exception of the goat secondary which was diluted 1:20,000). Secondary antibodies were fused to the horseradish peroxidase and raised against the host species of the primary antibody. After additional washings during 1 hour, blots were exposed to an enhanced chemiluminescence solution and the signal was detected using an Odyssey imager (LI-COR). Band densitometry was performed with LI-COR Image Studio Lite. For graph quantifications, ‘Fold Change’ represents the ratio P-Ser40/Total Th. Statistical comparisons between pair of groups correspond to unpaired Student's t-tests, as calculated with GraphPad Prism. Asterisks denote the following p-values: *<0.05, **<0.01, ***<0.001, ****<0.0001.
IBMX is a non-selective PDE inhibitor, therefore we investigated the effect of inhibiting a specific PDE selectively on Ser40 phosphorylation. To study the effect of PDE2A inhibition on Ser40 phosphorylation we treated the dopaminergic cell-line MN9D with Bay BAY-60-7550 and analyzed the effects. […]

Chain of GUCY2C (P25092 24-1073): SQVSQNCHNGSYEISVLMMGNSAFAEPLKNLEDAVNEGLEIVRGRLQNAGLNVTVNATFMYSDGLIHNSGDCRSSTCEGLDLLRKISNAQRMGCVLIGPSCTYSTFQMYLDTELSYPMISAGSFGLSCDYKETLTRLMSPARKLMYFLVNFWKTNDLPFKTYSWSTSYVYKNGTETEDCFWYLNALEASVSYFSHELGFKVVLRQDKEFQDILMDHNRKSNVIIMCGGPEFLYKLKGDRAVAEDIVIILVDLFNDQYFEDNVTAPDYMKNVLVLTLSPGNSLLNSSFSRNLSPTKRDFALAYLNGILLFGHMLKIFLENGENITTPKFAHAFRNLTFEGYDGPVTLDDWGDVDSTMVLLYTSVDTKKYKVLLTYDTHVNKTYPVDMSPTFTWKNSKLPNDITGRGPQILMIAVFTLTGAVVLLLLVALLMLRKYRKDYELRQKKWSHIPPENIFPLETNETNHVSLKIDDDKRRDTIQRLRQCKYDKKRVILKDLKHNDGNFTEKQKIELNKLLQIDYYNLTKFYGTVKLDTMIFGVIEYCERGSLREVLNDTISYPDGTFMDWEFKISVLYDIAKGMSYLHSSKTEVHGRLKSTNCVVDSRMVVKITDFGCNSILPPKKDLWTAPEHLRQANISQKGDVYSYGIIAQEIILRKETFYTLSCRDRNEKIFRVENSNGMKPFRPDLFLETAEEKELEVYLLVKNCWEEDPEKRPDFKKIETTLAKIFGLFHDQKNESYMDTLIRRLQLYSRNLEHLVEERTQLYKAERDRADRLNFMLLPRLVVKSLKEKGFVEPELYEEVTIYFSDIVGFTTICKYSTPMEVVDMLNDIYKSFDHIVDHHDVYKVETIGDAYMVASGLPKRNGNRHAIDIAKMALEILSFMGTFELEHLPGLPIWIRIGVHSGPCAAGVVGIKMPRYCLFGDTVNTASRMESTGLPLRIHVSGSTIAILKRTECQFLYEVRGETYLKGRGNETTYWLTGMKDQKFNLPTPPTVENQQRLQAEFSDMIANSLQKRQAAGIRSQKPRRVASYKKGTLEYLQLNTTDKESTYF

Row | Compound | Fold change (average), P-S40 TH/TTH ([2]; 10 μM, striatal slices) | Ser40 phosphorylation in HEK-293 cells (significance, in words) (GUCY2C) | further results
1 | Nc1nc2c(nc(Br)n2[C@@H]2O[C@@H]3COP(=O)(O)O[C@H]3[C@H]2O)c(=O)[nH]1 [Peptide 8-Bromo-cGMP, 8-Bromo-cGMP] | – | – | P-Ser40 levels upon compound administration [1]: small but significant increase
2 | H-NTFYCCELCCNPaCAGCY-OH [Peptide 11] | 1.20 | significant effects | –
3 | H-NDDCELCVNVACTGCL-OH (disulfide 4-12, 7-15; SMILES CC(C)C[C@H](NC(=O)[C@@H]1CSSC[C@@H]2NC(=O)[C@H](CC(C)C)NC(=O)[C@H](CCC(=O)O)NC(=O)[C@@H](NC(=O)[C@H](CC(=O)O)NC(=O)[C@H](CC(=O)O)NC(=O)[C@@H](N)CC(N)=O)CSSC[C@H](NC(=O)[C@H](C)NC(=O)[C@H](C(C)C)NC(=O)[C@H](CC(N)=O)NC(=O)[C@H](C(C)C)NC2=O)C(=O)N[C@@H]([C@@H](C)O)C(=O)NCC(=O)N1)C(=O)O) [Peptide 1] | – | did not show any significant effects | effects in striatal slices (significance, in words) [2]: did not show any significant effects
4 | CCCSc1nc2c(c(=O)n1-c1ccccc1)SCC2 [BC 11-38] | – | – | performance versus IBMX on Ser40 phosphorylation ([3]; IBMX 100 μM as control): performed less well than the positive control IBMX; phosphorylation of Th on Ser40 as compared to total Th (in words) ([3]; dose-curve): increase in the phosphorylation of Th on Ser40
5 | H-QEECEL[Abu]INMACTGY-OH (cysteine pairing not given here) [Peptide 6] | 0.88 | significant effects | –
6 | H-NDDCELCVNVACTGCLL-OH (disulfide 4-12, 7-15; ends not checked) [Peptide 2] | 2.23 | significant effects | rank of fold change in striatal slices ([2]; 10 μM, striatal slices): largest fold change; effects in striatal slices (significance, in words) [2]: not significant
7 | H-NDDCELCVNVVCTGCL-OH (disulfide 4-12, 7-15; ends not checked) [Peptide 5] | 1.22 | – | –
8 | H-QEECELCINMACTGCL-OH (disulfide 4-12, 7-15; ends not checked) [Peptide 8] | 0.89 | significant effects | –
9 | H-NDCCELCCNVACTGCL-OH [Peptide 4] | 1.00 | significant effects | –
10 | H-NTFYCCELCCNPACAGCY-OH (disulfide 5-10, 6-14, 9-17; ends not checked) [Peptide 9] | 1.37 | significant effects | –
11 | H-NTFYCCELCCAPACTGCY-OH [Peptide 10] | 1.44 | significant effects | –

From patent US20210330736A1 (UNIVERSITEIT VAN AMSTERDAM, priority 2018, published 2021)
